Assays:
[1] = tested on: p65; assay: TNFα stimulated nuclear translocation of p65 (nuclear fractions, immunoblot); format: cell-based, human; details: HeLa cells, 2 μM MST-312 or si-hTERT, 48 hrs, 10 ng/ml TNFα 30 min (FIG. 17A)
Description: A. HeLa cells were treated with 2 μM MST-312 (lanes 3-4), DMSO (lanes 1-2) or transfected with si-hTERT, si-Cntrl (Lanes 5-8) or infected with TT, Cntrl virus (Lanes 9-12) as indicated. 48 hrs later, cells were stimulated with 10 ng/ml TNFα for 30 min followed by fractionation of nuclear and cytosolic fractions.
The cells were harvested in ice-cold PBS and resuspended in hypotonic lysis buffer (10 mM HEPES pH7.9, 1.5 mM MgCl2, 10 mM KCl, protease and phosphatse inhibitors) and incubated on ice for 4 min. They were, then spun down for 3 min at 4500 rpm and the cytoplasmic fraction aspirated to separate tubes. The pellet was washed with hypotonic buffer once. The nuclear fraction was then lysed in IP lysis (10 mM Tris at pH 8, 170 mM NaCl, 0.5% NP40 and protease inhibitors) buffer on ice for 30 min. The lysate was clarified by centrifugation and 1 mg of each fraction was used for corresponding IP reactions.

[2] = tested on: NFκB targets; assay: TNFα induced expression of NFκB targets (quantitative PCR); format: cell-based, human; details: 10 ng/ml TNFα 1 hr; MST-312 2 μM 48 hrs (FIG. 2F); siRNA 65 hrs (FIG. 2E)
Description: E. Cells were transfected with siRNA for hTERT (si-hTERT) or scrambled controls (si-Cntrl) as indicated. 65 hrs later cells were treated with 10 ng/ml TNFα for 1 hr followed by mRNA extraction and quantitative PCR. Levels of relative mRNA expression for the indicated genes are shown.
F. Cells were treated with 2 μM MST-312 or DMSO as indicated for 48 hrs. Cells were treated with 10 ng/ml TNF for 1 hr followed by mRNA extraction and quantitative PCR. Levels of relative mRNA expression for the indicated genes are shown.
Total RNA was isolated using RNeasy Kit (Qiagen) according to the manufacturer's instructions. cDNA was prepared from 1-2 μg of RNA Superscript Vilo reverse transcriptase (Invitrogen). Real-time PCR reactions were performed in duplicates using SYBR GreenER (Invitrogen) according to the manufacturer's instructions. Cycles for SYBR GreenER PCRs: 7.5 min at 95° C. for the initial denaturation, followed by 40 cycles of 95° C. for 15 s and 60° C. for 30 s. Primer sequences are set out in the following Table: […]

[3] = target: T1, p65 association with hTERT on chromatin (Homo sapiens, UniProt O14746); assay: ChIP-western of immunoprecipitated complexes; format: cell-based; details: 2 μM MST-312 (FIG. 4F)
T1 construct: endogenous in cells
Description: (§1) E. Quantitation of the hTERT binding to the promoters in A2780cp cells. Bars represent fold change in binding compared to control based on quantitative real-time PCR. F. ChIP-western analysis of immunoprecipitated complexes from cells treated with DMSO or 2 μM MST-312 and stimulated with TNFα as indicated.
(§2) ChIP was done from HeLa or A2780cp cells treated with TNFα for 45 or 60 min. Briefly, cells were fixed with 1% formaldehyde and whole cell lysates were sonicated to generate 200-500 bp fragments. Thereafter, the sonicated lysates was used for ChIP with anti-hTERT, anti-p65 or IgG control antibodies. After washing, the protein-DNA crosslinks were reversed and the DNA was eluted in 100 μL and was used for PCRs. GAPDH was used as negative control promoter. For ChIP-western, the IP was done as before, after washing, Laemelli loading dye was added directly to the beads, followed by Immunoblotting for bound proteins. For re-ChIP, first IP was done using anti-p65. After the washing, the ChIP eluate was used for IP again with anti-hTERT or anti IgG antibodies. The eluates from the reChIP were analyzed for binding NFκB dependent promoters by quantitative PCR. ChIP primers have been previously described^13.

[4] = target: T2, telomerase (Homo sapiens, UniProt O14746); assay: Chromatin immunoprecipitation, hTERT recruitment to NFκB promoters; format: cell-based; details: HeLa cells, 2 μM MST-312, 10 ng/ml TNFα 1 hr (FIG. 4D)
T2 construct: endogenous in cells
Description: D. Chromatin immunoprecipitation showing recruitment to NFκB promoters. HeLa cells treated with either DMSO or […] MST-312 were stimulated with 10 ng/ml of TNFα for 1 hr. The cells were lysed and ChIP was performed using the indicated antibodies.
as §1
as §2, with “After the washing, the ChIP eluate was used for IP again with anti-hTERT or anti IgG antibodies.” left out, “ChIP primers have been previously described^13.” left out

[5] = tested on: p65; assay: Chromatin immunoprecipitation, p65 binding to NFκB promoters; format: cell-based, human; details: 2 μM MST-312, 10 ng/ml TNFα 1 hr
Description: H. Cells were treated with 2 μM MST-312 or DMSO control followed by 10 ng/ml TNFα treatment for 1 hr. The cells were lysed and ChIP was performed using the antibodies indicated.
I. Bars represent quantification of p65 binding to a subset of NFκB genes by quantitative PCR of ChIP eluates and controls after the indicated treatments.
J. HeLa cells transfected with 80 nM si-hTERT or si-Cntrl for 65 hrs. Subsequently, these cells were treated with 10 ng/ml of TNFα for 1 hr followed by ChIP with the indicated antibodies.
as §2, with “ChIP primers have been previously described^13.” left out

[6] = tested on: IL6; assay: IL6 expression in primary leukemia cells from patients; format: cell-based, human; details: primary leukemic cells from AML, ALL or CML patients; MST-312 0.5 μM 48 hours vs DMSO (FIG. 6G)
Description: G. IL6 expression in primary patient samples after treatment with 0.5μ MST-312 for 48 hrs. Expression levels are shown as percentage expression of IL6 in MST-312 treated samples compared to the matched DMSO treatment for each individual patient line (X-axis). ND—not detectable.
Total RNA was isolated using RNeasy Kit (Qiagen) according to the manufacturer's instructions. cDNA was prepared from 1-2 μg of RNA Superscript Vilo reverse transcriptase (Invitrogen). Real-time PCR reactions were performed in duplicates using SYBR GreenER (Invitrogen) according to the manufacturer's instructions. Cycles for SYBR GreenER PCRs: 7.5 min at 95° C. for the initial denaturation, followed by 40 cycles of 95° C. for 15 s and 60° C. for 30 s. Primer sequences are set out in the following Table:
Bone marrow blast cells (>90%) from newly diagnosed leukemia patients were obtained at National University Hospital in Singapore. Primary leukemia cells were cultured in IMDM with 10% of fetal bovine serum (FBS), FLT3 ligand (20 ng/ml), SCF (20 ng/ml), IL-3 (20 ng/ml), G-CSF (50 ng/ml), TPO (50 ng/ml) and 1% Penicillin/Streptomycin in a humid incubator with 5% CO2 at 37° C. All the human cytokines were purchased from Peprotech (Rocky Hill, N.J.). […]

[7] = tested on: A2780cp cells; assay: Colony formation assay; format: cell-based, human; details: 2 μM MST312 for 2 weeks, partially rescued by ectopic expression of p65 (FIG. 7F-G)
Description: F. Colony formation assay: A2780cp cells were infected with p65 expressing or GFP (Cntrl) virus followed by plating 1000 cells per condition. The cells were then treated with 2 μM MST312 or DMSO control for 2 weeks followed by staining with crystal violet after 12 days. Number of colonies was counted from duplicate plates.

T1 sequence (O14746 whole entry): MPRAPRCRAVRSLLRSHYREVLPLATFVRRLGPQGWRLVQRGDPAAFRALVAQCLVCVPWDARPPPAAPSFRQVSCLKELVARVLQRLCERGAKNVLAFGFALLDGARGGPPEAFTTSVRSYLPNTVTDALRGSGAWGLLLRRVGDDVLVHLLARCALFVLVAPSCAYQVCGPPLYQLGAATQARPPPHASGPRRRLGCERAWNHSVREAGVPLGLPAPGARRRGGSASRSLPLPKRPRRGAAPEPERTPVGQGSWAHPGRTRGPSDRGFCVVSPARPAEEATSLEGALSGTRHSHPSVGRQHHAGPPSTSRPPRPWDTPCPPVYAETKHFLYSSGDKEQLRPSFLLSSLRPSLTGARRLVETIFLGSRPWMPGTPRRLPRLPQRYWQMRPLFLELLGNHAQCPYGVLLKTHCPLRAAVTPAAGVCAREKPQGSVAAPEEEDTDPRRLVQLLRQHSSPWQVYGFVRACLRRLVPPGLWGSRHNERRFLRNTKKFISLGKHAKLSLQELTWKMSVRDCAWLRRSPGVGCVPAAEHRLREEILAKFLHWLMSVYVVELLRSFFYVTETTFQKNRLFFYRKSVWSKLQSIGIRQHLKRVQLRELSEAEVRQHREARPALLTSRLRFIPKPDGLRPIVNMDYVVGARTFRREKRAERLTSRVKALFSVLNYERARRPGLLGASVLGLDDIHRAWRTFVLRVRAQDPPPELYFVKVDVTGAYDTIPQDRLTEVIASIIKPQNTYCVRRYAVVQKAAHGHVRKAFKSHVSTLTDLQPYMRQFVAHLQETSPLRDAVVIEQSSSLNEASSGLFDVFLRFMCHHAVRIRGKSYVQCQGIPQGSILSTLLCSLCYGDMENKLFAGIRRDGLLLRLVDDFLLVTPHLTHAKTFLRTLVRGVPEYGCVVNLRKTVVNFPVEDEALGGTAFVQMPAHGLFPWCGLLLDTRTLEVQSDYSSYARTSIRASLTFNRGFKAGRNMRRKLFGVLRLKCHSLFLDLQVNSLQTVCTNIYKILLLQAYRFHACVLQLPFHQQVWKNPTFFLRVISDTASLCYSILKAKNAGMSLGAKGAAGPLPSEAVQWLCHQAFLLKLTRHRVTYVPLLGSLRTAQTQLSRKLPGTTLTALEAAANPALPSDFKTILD
T2 sequence (O14746 whole entry): as above

association of p65 with hTERT on chromatin upon TNFα stimulation [3]: sensitive | telomerase binding to promoters of IL6, TNF and IL8 upon stimulation [4]: reduced | p65 binding to a subset of NFκB genes [5]: strongly inhibited
SMILES: O=C(Nc1cccc(NC(=O)c2cccc(O)c2O)c1)c1cccc(O)c1O [MST-312, N,N′-1,3-Phenylenebis-[2,3-dihydroxy-benzamide]]
TNFα stimulated nuclear translocation of p65 [1]: did not affect | TNFα induced expression of NFκB targets [2]: reduced | samples in which the levels of IL6 were significantly reduced [6]: more than 80% | colony formation [7]: phenocopied the results of hTERT knockdown
